Measured values published in patent publication US6420367B1, “Pyrimidine derivatives exhibiting antitumor activity” (Shionogo & Co., Ltd., priority 1998, dated 2002).
Values after ≈ are worked out from the molar mass of the structure shown.

Key:
[1] = tested on: DT-R cells (pRRE3-luc-transfected v-ki-ras-transformed NIH3T3 cells); signal derived from Ras oncogene products; experiment: Inhibitory effect against cellular signaling derived from Ras oncogene products: luciferase reporter, dissociation of DT-R from DT-C activity (MAC); assay type: cell-based, mouse; details: minimal tested concentration at which luciferase activities of DT-C cells and DT-R cells dissociated
Source text: Test Example 1 Inhibitory Effect Against Cellular Signaling Derived From Ras Oncogene Products
1) Establishment of Cell Lines Used in Assay
Based on the reporter plasmid (pGV-P (Toyo Ink, Japan)), in which luciferase gene was ligated to SV40-derived minimal promoter, we constructed a plasmid designated pRRE3-luc by inserting 3 copies of chemically synthesized oligonucleotides (Sequence: CAGGATATGACTCT, derived from mouse NVL-3 (M. A. Reddy et al.(1992)Mol. Endocrinol., 6, 1051)) into upstream of the promoter. v-ki-ras-transformed NIH3T3 cells (DT cells, provided by Dr. Makoto Noda (Kyoto Univ., School of medicine)) were transfected with this plasmid by liposome-mediated transfection and transfected cell lines stably incorporated and maintained each plasmid were obtained. We named pGV-P and pRRE3-transfected cell line as DT-C and DT-R, respectively and used in the assay described below.
2) Preparation of Samples
i) All the cell lines were cultured in Dulbecco's Modified Essential Medium (DMEM: 10% Fetal Calf Serum(FCS: Hyclone, USA)) including […] kanamycin (Meiji Seika, Japan) in humidified incubator under condition of 5% CO2 at 37° C.
ii) DT-C and DT-R cells were seeded at 2500 cells/well into flat-bottom 96 well multiplate (Sumitomo bakelite) and incubated for 24 hours.
iii) Test compounds were prepared as 1 mg/ml DMSO solution.
iv) The solution of test compounds were added to the culture. Tested compounds are used at the concentration from […] to 0.51 ng/ml with by 3-fold dilution.
v) After 24 hours, the culture supernatant was completely aspirated and […] of cell-lysing solution (PGC-50 (Toyo Ink, Japan)) was added before cells were dried up. In order to the cells were lysed completely, multiwell plates were left at room temperature for 10 to 30 min. The plates were wrapped up and stored at −20° C. till the day of measurement.
3) Measurement of Samples
i) Melt the samples by putting 96 well multiplate at 37° C. and add 90 μl/well 25 mM Tris (pH 7.5).
ii) Transfer 50 μl of the sample (110 μl) to the 96 well microplate for measurement (Microlite 1 (Dynatech)).
iii) Measure the samples by the luminometer, LUMINOUS CT9000D (Dia-Yatron, Japan). We used Pickagene luminescence kit PGL2000 or LT2.0 (Toyo Ink, Japan) as substrates for luminescence measurement (50 μl/well).
4) Judgment of the Results
i) The luciferase activity of DT-C cells and DT-R cells were plotted in the graph where the relative activity and the compound concentration were expressed as Y-axis and X-axis, respectively. We judged by the degree of dissociation between the activities of DT-C cells and DT-R cells as an index.
ii) Concretely, efficacy of the compound was expressed by two values described below.
a) Among the points of concentration tested, the minimal concentration (Minimal Active Concentration: MAC), at which the activities of DT-C cells and DT-R cells dissociated, was shown as an index of efficacy of the compound.

human colon cancer HT29 = experiment: In vitro cell growth inhibition test, MTT assay; assay type: cell-based; details: MTT assay 4 days after compound addition
Source text: (§1) Test Example 2 In Vitro Cell Growth Inhibition Test Cells and MTT Assay
(§2) Human squamous lung cancer […], human squamous lung cancer Ma44, human lung adenocarcinoma A549, human colon cancer HT29 and human pancreas cancer PANC-1 were used.

[2] = tested on: human lung adenocarcinoma A549; experiment: In vitro cell growth inhibition test, MTT assay; assay type: cell-based; details: MTT assay 4 days after compound addition
Source text: as §1, §2

[3] = tested on: human pancreas cancer PANC-1; experiment: In vitro cell growth inhibition test, MTT assay; assay type: cell-based; details: MTT assay 4 days after compound addition
Source text: as §1, §2

[4] = tested on: human squamous lung cancer Ma44; experiment: In vitro cell growth inhibition test, MTT assay; assay type: cell-based; details: MTT assay 4 days after compound addition
Source text: as §1, §2

[5] = tested on: human squamous lung cancer RERF-RC-AI; experiment: In vitro cell growth inhibition test, MTT assay; assay type: cell-based; details: MTT assay 4 days after compound addition
Source text: as §1, §2

Structure (SMILES) | MAC (Minimal Active Concentration) [1] [µg/mL] | IC50, HT29 (human colon cancer HT29) [µg/mL] | IC50, A549 [2] [µg/mL] | IC50, PANC-1 [3] [µg/mL] | IC50, Ma44 [4] [µg/mL] | IC50, RERF-LC-AI [5] [µg/mL]
CCNC(=Nc1nc(C)ncc1CSc1nnc(-c2ccccc2N)o1)NC [Compound A-1] | 0.0412 | 0.012 (≈ 0.0301 µM) | 0.022 (≈ 0.0552 µM) | 0.016 (≈ 0.0402 µM) | 0.039 (≈ 0.0979 µM) | 0.018 (≈ 0.0452 µM)
CCNC(=Nc1nc(C)ncc1CSc1nnc(-c2ccccc2NC(C)=O)o1)NC [Compound A-2] | 0.0412 | 0.015 (≈ 0.034 µM) | 0.017 (≈ 0.0386 µM) | 0.015 (≈ 0.034 µM) | 0.022 (≈ 0.0499 µM) | 0.009 (≈ 0.0204 µM)
CCNC(=Nc1ncncc1CSc1nnc(-c2ccc(N)cc2)o1)NCC [Compound A-3] | 0.0412 | 0.0066 (≈ 0.0166 µM) | 0.035 (≈ 0.0878 µM) | 0.015 (≈ 0.0376 µM) | 0.09 (≈ 0.226 µM) | 0.026 (≈ 0.0652 µM)
CCNC(=Nc1nc(C)ncc1CSc1nnc(-c2cc(F)c(F)cc2N)o1)NCC [Compound A-52] | 0.123 |  | 0.049 (≈ 0.109 µM) | 0.024 (≈ 0.0535 µM) | 0.11 (≈ 0.245 µM) | 
CCNC(=Nc1nc(C)ncc1CSc1nnc(-c2ccc(NC(C)=O)cc2)o1)NCC [Compound A-56] |  |  | 0.18 (≈ 0.396 µM) | 0.085 (≈ 0.187 µM) | 0.85 (≈ 1.87 µM) | 
CCNC(=Nc1ncncc1CSc1nnc(-c2ccccc2NC(C)=O)o1)NCC [Compound A-57] | 0.0137 |  | 0.014 (≈ 0.0318 µM) | 0.0088 (≈ 0.02 µM) | 0.025 (≈ 0.0567 µM) | 
CCNC(=Nc1nc(C)ncc1CSc1nnc(-c2ccc(N)cc2Cl)o1)NCC [Compound A-64] | 0.370 | 0.015 (≈ 0.0336 µM) | 0.034 (≈ 0.0761 µM) | 0.03 (≈ 0.0671 µM) | 0.086 (≈ 0.192 µM) | 0.013 (≈ 0.0291 µM)
CCNC(=Nc1ncncc1CSc1nnc(-c2ccc(F)cc2N)o1)NCC [Compound A-65] | <0.000508 | 0.0014 (≈ 0.00336 µM) | 0.0028 (≈ 0.00672 µM) | 0.0021 (≈ 0.00504 µM) | 0.09 (≈ 0.216 µM) | 0.0014 (≈ 0.00336 µM)
CCNC(=Nc1ncncc1CSc1nnc(-c2ccc(NC)cc2)o1)NCC [Compound A-66] |  | 0.067 (≈ 0.162 µM) | 0.036 (≈ 0.0873 µM) | 0.17 (≈ 0.412 µM) | 1.8 (≈ 4.36 µM) | 0.05 (≈ 0.121 µM)
CCNC(=Nc1ncncc1CSc1nnc(-c2ccc(N(C)C)cc2)o1)NCC [Compound A-67] |  | 0.083 (≈ 0.195 µM) | 0.083 (≈ 0.195 µM) | 0.34 (≈ 0.797 µM) | 6.1 (≈ 14.3 µM) | 0.053 (≈ 0.124 µM)
CNC(=Nc1nc(C)ncc1CSc1nnc(-c2ccccc2N)o1)NC [Compound A-70] | 0.123 | 0.0084 (≈ 0.0218 µM) | 0.013 (≈ 0.0338 µM) | 0.015 (≈ 0.039 µM) | 0.032 (≈ 0.0832 µM) | 0.0067 (≈ 0.0174 µM)
CCNC(=Nc1nc(C)ncc1CSc1nnc(-c2ccc(N)c(C)c2)o1)NCC [Compound A-71] | 1.11 | 0.093 (≈ 0.218 µM) | 0.72 (≈ 1.69 µM) | 0.18 (≈ 0.422 µM) | 0.31 (≈ 0.727 µM) | 0.077 (≈ 0.181 µM)
CCNC(=Nc1nc(C)ncc1CSc1nnc(-c2ccccc2Cl)o1)NCC [Compound A-77] |  | 0.044 (≈ 0.102 µM) | 0.13 (≈ 0.301 µM) | 0.048 (≈ 0.111 µM) | 0.11 (≈ 0.255 µM) | 0.03 (≈ 0.0695 µM)
CCNC(=Nc1nc(C)ncc1CSc1nnc(-c2ccccc2C)o1)NCC [Compound A-78] |  | 0.021 (≈ 0.051 µM) | 0.063 (≈ 0.153 µM) | 0.037 (≈ 0.0899 µM) | 0.052 (≈ 0.126 µM) | 0.017 (≈ 0.0413 µM)
CCNC(=Nc1nc(C)ncc1CSc1nnc(-c2ccc(C(=O)c3ccccc3)cc2)o1)NCC [Compound A-84] |  | 0.38 (≈ 0.758 µM) | 0.44 (≈ 0.877 µM) | 0.3 (≈ 0.598 µM) | 0.41 (≈ 0.817 µM) | 0.18 (≈ 0.359 µM)
CCNC(=Nc1nc(C)ncc1CSc1nnc(-c2ccc(OCC)cc2)o1)NCC [Compound A-101] |  | 0.052 (≈ 0.118 µM) | 0.79 (≈ 1.79 µM) | 0.077 (≈ 0.174 µM) | 0.21 (≈ 0.476 µM) | 
CCNC(=Nc1nc(C)ncc1CSc1nnc(-c2ccc(I)cc2)o1)NCC [Compound A-105] |  | 0.064 (≈ 0.122 µM) | 0.11 (≈ 0.21 µM) | 0.086 (≈ 0.164 µM) | 0.091 (≈ 0.174 µM) | 
CCNC(=Nc1nc(C)ncc1CSc1nnc(-c2ccccc2)o1)NCC [Compound A-107] | 0.370 | 0.036 (≈ 0.0906 µM) | 0.065 (≈ 0.164 µM) | 0.052 (≈ 0.131 µM) | 0.055 (≈ 0.138 µM) | 
Cc1ncc(CSc2nnc(-c3ccc([N+](=O)[O-])cc3)o2)c(N=C(NCC(C)C)NCC(C)C)n1 [Compound A-129] |  | 0.3 (≈ 0.602 µM) | 0.43 (≈ 0.862 µM) | 0.21 (≈ 0.421 µM) | 0.33 (≈ 0.662 µM) | 0.17 (≈ 0.341 µM)
CCNC(=Nc1nc(C)ncc1CSc1nnc(-c2c[nH]nc2N)o1)NCC [Compound D-7] |  | 0.18 (≈ 0.447 µM) | 3.2 (≈ 7.95 µM) | 2.4 (≈ 5.96 µM) | 5.2 (≈ 12.9 µM) | 0.083 (≈ 0.206 µM)
CCNC(=Nc1ncncc1CSc1nnc(-c2cc[n+]([O-])cc2)o1)NCC [Compound D-42] |  | 0.071 (≈ 0.177 µM) | 0.57 (≈ 1.42 µM) | 0.17 (≈ 0.425 µM) | 0.38 (≈ 0.949 µM) | 0.082 (≈ 0.205 µM)
CCNC(=Nc1ncncc1CSc1nnc(-c2csc([N+](=O)[O-])c2)o1)NCC [Compound D-43] |  | 0.1 (≈ 0.23 µM) | 0.27 (≈ 0.621 µM) | 0.1 (≈ 0.23 µM) | 0.2 (≈ 0.46 µM) | 0.21 (≈ 0.483 µM)
